# Measurements taken from article PMC6199744, “Development of Chemical Proteomics for the Folateome and Analysis of the Kinetoplastid Folateome” (ACS Infectious Diseases, 2018).
# Tested on: L. major lysate proteins
# Assay: Multitargeted bead mixture chemoproteomics, single concentration competition, proteome-wide
# Type: binding
structure (smiles),measurement,setting,value
NCCCNc1ccc(C(=O)NC(CCC(=O)O)C(=O)O)cc1 (stereo not drawn) [compound 7],fold change,"protein LMJF.35.0420 40S RIBOSOMAL PROTEIN S3A, PUTATIVE, vehicle control = 1",1.04
same,fold change relative to vehicle control,"protein LMJF.35.1220, SHORT CHAIN DEHYDROGENASE, PUTATIVE",1.22
same,fold change relative to vehicle control,"protein LMJF.35.1380, MIT[…], BETA SUBUNIT, PUTATIVE",1.09
same,fold change vs vehicle control,"protein LMJF.35.1830 HYPOTHETICAL PROTEIN, CONSERVED",0.96
same,fold change vs vehicle control,protein LMJF.35.3340 6-phosphogluconate dehydrogenase,1.02
same,fold change,"protein LMJF.35.3700 GIM5A PROTEIN, PUTATIVE,GLYCOSOMAL MEMBRANE PROTEIN, vehicle control = 1",0.89
same,fold change vs vehicle control,"protein LMJF.35.3760 60S RIBOSOMAL PROTEIN L27A/L29, PUTATIVE",0.84
same,fold change relative to vehicle control,"protein LMJF.35.3840, […] 2 SUBUNIT, PUTATIVE",1.34
same,fold change vs vehicle control,"protein LMJF.35.3860 T-COMPLEX PROTEIN 1, ETA SUBUNIT, PUTATIVE",0.92
same,fold change,"protein LMJF.35.4420 MIT[…] TRANSPORTER, PUTATIVE, vehicle control = 1",1.06
same,fold change relative to vehicle control,"protein LMJF.35.4880, HYPOTHETICAL PROTEIN, CONSERVED (TPR repeat, putative)",0.98
same,fold change relative to vehicle control,"protein LMJF.35.5330, ISOPENTENYL-D[…]-ISOMERASE, PUTATIVE",1.02
same,fold change relative to vehicle control,"protein LMJF.36.0070, STRESS-INDUCIBLE PROTEIN STI1 HOMOLOG",1.21
same,fold change,"protein LMJF.36.0480 HY[…], CONSERVED, vehicle control = 1",1.01
same,fold change vs vehicle control,"protein LMJF.36.0620 HY[…], CONSERVED",1.07
same,fold change vs vehicle control,"protein LMJF.36.0930 40S RIBOSOMAL PROTEIN S18, PUTATIVE",1.09
same,fold change vs vehicle control,"protein LMJF.36.0990 40S RIBOSOMAL PROTEIN S10, PUTATIVE",1.03
same,fold change,"protein LMJF.36.1140 SHORT CHAIN 3-HYDROXYACYL-COA DEHYDROGENASE, PUTATIVE, vehicle control = 1",0.85
same,fold change relative to vehicle control,"protein LMJF.36.1260, FRUCTOSE-1,6-BI[…]",1.01
same,fold change,"protein LMJF.36.1340 N-ACETYLTRANSFERASE SUBUNIT NAT1, PUTATIVE, vehicle control = 1",0.79
same,fold change vs vehicle control,"protein LMJF.36.1650 PROTEASOME BETA 5 SUBUNIT, PUTATIVE",0.99
same,fold change relative to vehicle control,"protein LMJF.36.2380, STEROL 24-C-METHYLTRANSFERASE, PUTATIVE",0.97
same,fold change vs vehicle control,"protein LMJF.36.2950 SUCCINYL-COA LIGASE GDP-FORMING] BETA-CHAIN, PUTATIVE",1
same,fold change vs vehicle control,protein LMJF.36.3210 14-3-3 PROTEIN-LIKE PROTEIN,0.87
same,fold change vs vehicle control,protein LMJF.36.3410 SHORT CHAIN DEHYDROGENASE-LIKE PROTEIN,1.26
same,fold change,"protein LMJF.36.3460 HYPOTHETICAL PROTEIN, CONSERVED (NIPSNAP, putative), vehicle control = 1",0.88
same,fold change,"protein LMJF.36.3580 HY[…], CONSERVED (Protein of unknown function (DUF2009), putative), vehicle control = 1",1.12
same,fold change,"protein LMJF.36.3750 40S RIBOSOMAL PROTEIN S27-1, PUTATIVE, vehicle control = 1",1.02
same,fold change vs vehicle control,"protein LMJF.36.5010 40S RIBOSOMAL PROTEIN SA, PUTATIVE",1.12
same,fold change vs vehicle control,"protein LMJF.36.5130 HY[…], CONSERVED",1.42
same,fold change vs vehicle control,"protein LMJF.36.5150 HYPOTHETICAL PROTEIN, CONSERVED",0.97
same,fold change relative to vehicle control,"protein LMJF.36.5380, NADH DEHYDROGENASE, PUTATIVE",1.14
same,fold change vs vehicle control,"protein LMJF.36.5390 PHOSPHORIBOSYLPYROPHOSPHATE SYNTHETASE, PUTATIVE",0.89
same,fold change vs vehicle control,"protein LMJF.36.5620 ISOLEUCYL-TRNA SYNTHETASE, PUTATIVE",1
same,fold change,"protein LMJF.36.6430 PROTEIN TRANSPORT PROTEIN SEC23-LIKE PROTEIN, vehicle control = 1",0.89
same,fold change vs vehicle control,"protein LMJF.36.6760 HY[…], CONSERVED",1.01
same,fold change relative to vehicle control,"protein LMJF.[…], MIT[…] BETA SUBUNIT, PUTATIVE",0.91
same,fold change relative to vehicle control,"protein LMJF.[…], POLY(A) EXPORT PROTEIN, PUTATIVE",1.14
same,fold change,"vs vehicle control, protein LINJ.20.0630 CYTIDINE TR[…], PUTATIVE,CTP SYNTHASE, PUTATIVE",1.04
same,fold change,"vs vehicle control, protein LINJ.20.1390 COATOMER BETA SUBUNIT, PUTATIVE",0.87
same,fold change,"vs vehicle control, protein LMJF.05.1140 VACUOLAR ATPASE SUBUNIT-LIKE PROTEIN",0.93
same,fold change,"vs vehicle control, protein LMJF.07.1090 DELTA-5 FATTY ACID DESATURASE",0.92
same,fold change,"vs vehicle control, protein LMJF.09.0220 HYPOTHETICAL PROTEIN, CONSERVED",0.78
same,fold change,"vs vehicle control, protein LMJF.11.1030 HYPOTHETICAL PROTEIN, CONSERVED",0.93
same,fold change,"vs vehicle control, protein LMJF.14.0640 FATTY ACID ELONGASE, PUTATIVE",0.8
same,fold change,"vs vehicle control, protein LMJF.14.0705 FATTY ACID ELONGASE, PUTATIVE",1.17
same,fold change,"vs vehicle control, protein LMJF.14.1120 KINESIN K39, PUTATIVE",0.6
same,fold change,"vs vehicle control, protein LMJF.16.1610 PROHIBITIN",1.07
same,fold change,"vs vehicle control, protein LMJF.17.0010 HYPOTHETICAL PROTEIN, CONSERVED",0.87
same,fold change,"vs vehicle control, protein LMJF.18.1130 RAS-RELATED PROTEIN RAB-5, PUTATIVE",0.68
same,fold change,"vs vehicle control, protein LMJF.19.1420 CYSTEINE PEPTIDASE A (CPA)",0.9
same,fold change,"vs vehicle control, protein LMJF.21.0280 HY[…], CONSERVED",0.94
same,fold change,"vs vehicle control, protein LMJF.22.1560 40S RIBOSOMAL PROTEIN L14, PUTATIVE",0.7
same,fold change,"vs vehicle control, protein LMJF.23.1220 T-COMPLEX PROTEIN 1, GAMMA SUBUNIT, PUTATIVE",1.02
same,fold change,"vs vehicle control, protein LMJF.24.0370 ASPARTATE AMINOTRANSFERASE, PUTATIVE",1.01
same,fold change,"vs vehicle control, protein LMJF.25.1770 ENOYL-COA REDUCTASE, PUTATIVE",1.02
same,fold change,"vs vehicle control, protein LMJF.26.0170 60S RIBOSOMAL PROTEIN L7, PUTATIVE",0.9
same,fold change,"vs vehicle control, protein LMJF.26.1550 TRI[…] ALPHA SUBUNIT, MIT[…]-LIKE PROTEIN",1.06
same,fold change,"vs vehicle control, protein LMJF.26.1610 PROLINE OXIDASE, MITOCHONDRIAL PRECURSOR-LIKE PROTEIN",0.83
same,fold change,"vs vehicle control, protein LMJF.28.1950 X-PRO, DIPEPTIDYL-PEPTIDASE,SERINE PEPTIDASE, CLAN SC, FAMILY S15, PUTATIVE",1.14
same,fold change,"vs vehicle control, protein LMJF.31.1070 BIOTIN/LIPOATE PROTEIN LIGASE-LIKE PROTEIN",0.87
same,fold change,"vs vehicle control, protein LMJF.32.1370 HYPOTHETICAL PROTEIN, CONSERVED",0.91
same,fold change,"vs vehicle control, protein LMJF.34.0490 IMPORTIN BETA-1 SUBUNIT, PUTATIVE",0.78
same,fold change,"vs vehicle control, protein LMJF.34.4060 UBIQUITIN HYDROLASE, PUTATIVE,CYSTEINE PEPTIDASE, CLAN CA, FAMILY C19, PUTATIVE",0.91
same,fold change,"vs vehicle control, protein LMJF.36.1600 PROTEASOME ALPHA 1 SUBUNIT, PUTATIVE",0.95
same,fold change,"vs vehicle control, protein LMJF.[…] RIBOSOMAL PROTEIN S7, PUTATIVE",1
